These results are taken from patent US9498451B2, “Method for treating or preventing radiation damage” (Beijing Institute of Transfusion Medicine, Academy of …, priority 2013, dated 2016).

Entries after “also recorded” stand apart in the source; their conditions may differ.

The test system of assay [1] is mice radiated by 60Co γ-ray with a lethal dosage. Nature of the assay: Survival rate of mice radiated by 60Co γ ray with a lethal dosage (8.0 Gy) and injected with TA01. It counts as in vivo, mouse (male C57BL/6). The note with it: 8.0 Gy 60Co whole body irradiation, vs control group. As for the experimental part:
50 male C57BL/6 mice were subjected to whole body irradiation by ^60Co ray with a dosage rate of 1.56 Gy/min and an irradiation dosage of 8.0 Gy. The radiated mice were divided into 5 groups randomly, each group having 10 mice. The 5 groups were injected with TA01 with dosages of 0 mg/kg (control group), 1.25 mg/kg, 2.5 mg/kg, 5 mg/kg and 10 mg/kg, respectively. The injection was performed every three days and continued for 12 days, and the solvent of the injection was a PBS solution. Then, these mice were observed and survival rates of these mice were calculated.
FIG. 2 is a diagram showing survival rates (rates of survival) of mice radiated by ^60Co γ-ray with a lethal dosage and subcutaneously injected with different dosages of TA01.

Assay [2] concerns mice radiated by 60Co γ-ray with a sub-lethal dosage. The assay can be described thus: Contents of WBC, RBC and PLT in peripheral blood of mice radiated by 60Co γ-ray with a sub-lethal dosage (6.5 Gy). It counts as in vivo, mouse (male C57). The note with it: 2.5 mg/kg every three days for 5 times, vs PBS group. As for the experimental part: 10 male C57 mice were subjected to whole body irradiation by ^60Co γ ray with a dosage rate of 1.56 Gy/min and an irradiation dosage of 6.5 Gy. The radiated mice were divided into 2 groups randomly, a PBS group having 5 mice and a TA01 group having 5 mice. Every mouse in the TA01 group was injected with 2.5 mg/kg (body weight) TA01 every three days for 5 times, and the solvent of the injection was a PBS solution. Every mouse in the PBS group was treated with the same process as the TA01 group, with the exception that the injection amount of TA01 was 0, in other words, only the PBS solution was injected. After different days for treating, each group of the mice was subjected to a cutting-tail process to collect 20 μL blood which was subsequently added with 2 mL blood cell dilution (commercially available from Jinan Bolai Biotechnology Co., Ltd).
FIG. 3 is diagrams showing contents of WBC, RBC and PLT in peripheral blood of mice radiated by ^60Co γ-ray with a sub-lethal dosage and injected subcutaneously with TA01 or PBS (control) at different time points.

Assay [3] relates to hemopoietic stem/progenitor cells in bone marrow. The assay can be described thus: Number of hemopoietic stem/progenitor cells (CFU, CFU-G, CFU-GM, CFU-MK) in bone marrow of sub-lethally radiated mice. The settings on record: 6.5 Gy; 2.5 mg/kg every three days; bone marrow on 7th day, 7 days culture; vs control group. It counts as in vivo, mouse (male C57/BL6). As for the experimental part: 6 male C57/BL6 mice were subjected to whole body irradiation by ^60Co γ ray with a dosage rate of 1.56 Gy/min and an irradiation dosage of 6.5 Gy. The radiated mice were divided into 2 groups randomly, a PBS group having 3 mice and a TA01 group having 3 mice. Every mouse in the TA01 group was injected with 2.5 mg/kg TA01 (body weight) every three days, the solvent of the injection was a PBS solution with pH from 7.5 to 8.5. TA01 injection dosage for the PBS group was 0, in other words, only the PBS solution was injected. On the 7th day after the subcutaneous injection, bone marrow blood was collected from each mouse into respective 10 mL tubes pretreated with heparin (commercially available from Tianjing Haoyang Biological Product Technology Limited Liability Company). After the bone marrow blood was mixed with the heparin uniformly, fresh PBS (commercially available from Hyclone Company) was added therein up to 5 mL. After mixing, a uniform mixture of blood and PBS was obtained. Mouse lymphocyte separation medium (commercially available from Tianjing Haoyang Biological Product Technology Limited Liability Company) were subjected to pre-aliquot in centrifuge tubes each having 5 mL of the lymphocyte separation medium (operating in a super clean bench). Then the uniform mixture was gently added on the top of the lymphocyte separation medium, after which a centrifuge was performed at 1500 rpm/min for 20 min. The intermediate layer of cells in a white color was sucked into a new 10 mL centrifuge tube, which was then added with PBS up to 10 mL followed by a mixing and centrifuge at 1500 rpm/min for 5 min. Then obtained upper PBS was removed, and the tube was added with fresh PBS up to 10 ml followed by a mixing and centrifuge at 1500 rpm/min for 5 min. Then the upper PBS was removed, and the tube was added with fresh PBS up to 1 mL followed by a mixing, which was then subjected to a cell number counting. After calculating the number of single nucleus per mL blood, the blood was mixed uniformly with 500 μL semisolid medium (including 0.9% methylcellulose, 15% fetal bovine serum, 100 U/ml penicillin/streptomycin, 1 mM sodium pyruvate, 2 mM glutaminate, 2 mM PFHM II, 200 m/ml transferrin, 1% BSA, 0.45 mM MTG, 30% IMDM, 50 ng/ml SCF, 10 ng/ml TPO, 10 ng/ml IL-3, 10 ng/ml IL-11, 10 ng/ml GM-CSF and 3 U/ml EPO), and cultured in an incubator containing 5% CO2 at 37° C. After 7 days, hematopoietic colony-forming unit (CFU), granulocyte colony-forming unit (CFU-G), granulocyte and macrophage colony-forming unit (CFU-GM) and megakaryocyte colony-forming unit (CFU-MK) were counted respectively, and the results were shown in FIG. 4. […]

Assay [4] relates to mice radiated by 60Co γ-ray with a lethal dosage. The assay can be described thus: HE staining of intestinal, hepatic and pulmonary tissues of mice radiated by 60Co γ-ray with a lethal dosage (8.0 Gy). It counts as in vivo, mouse (male C57/BL6). The settings on record: 2.5 mg/kg every three days, vs PBS group. As for the experimental part:
6 male C57/BL6 mice were subjected to whole body irradiation by ^60Co γ ray with a dosage rate of 1.56 Gy/min and an irradiation dosage of 8.0 Gy. The radiated mice were divided into 2 groups randomly, a PBS group (control) having 3 mice and a TA01 group having 3 mice. Every mouse in the TA01 group was injected with 2.5 mg/kg TA01 (body weight) every three days, the solvent of the injection was a PBS solution with pH of 7.4. TA01 injection dosage for the PBS group was 0, in other words, only the PBS solution was injected. The mice both two groups were sacrificed by dislocation on the 10th day and the 14th day after the irradiation, respectively. The intestinal, hepatic and pulmonary tissues were collected, fixed with 4% paraformaldehyde and formed into paraffin sections. The paraffin sections were subjected to HE staining, so as to obserse repairing conditions of the intestinal, hepatic and pulmonary tissues, and the results were shown in FIGS. 5 and 6.
FIG. 5 is diagrams showing results of hematoxylin-eosin staining with intestinal tissues of mice radiated by ^60Co γ-ray with a lethal dosage and treated with TA01 or PBS.
FIG. 6 is diagrams showing results of hematoxylin-eosin staining with hepatic and pulmonary tissue of mice radiated by ^60Co γ-ray with a lethal dosage and treated with TA01 or PBS.

Consider `CN(C)CCN(CCN(C)C)CCN(C)C` [TA01, tris(2-(dimethylamino)ethyl)amine], for which, in assay [1] (TA01 1.25 mg/kg every three days for 5 times), the survival rate entry was “significantly increased”. Moreover, in assay [1] (TA01 2.5 mg/kg every three days for 5 times, 2.5 mg/kg), the survival rate result was “significantly increased; also recorded: best survival rate”. The survival rate result in assay [1] (TA01 5 mg/kg every three days for 5 times) is “significantly increased”. For the same compound, the survival rate entry in assay [1] (TA01 10 mg/kg every three days for 5 times) is given as “significantly increased”. Further, the “content of WBC in peripheral blood” value in assay [2] (on the 4th, 7th and 21st day) is on record as “significantly increased”. For the same compound, the “content of PLT in peripheral blood” value in assay [2] (on the 4th, 14th, 21st and 28th day) was “significantly increased”. Moreover, in assay [2] (on the 21st day), the “content of RBC in peripheral blood” value is “most obviously increased”. Besides, in assay [3], the “number of CFU-G in bone marrow” value was “increased obviously”, the “number of CFU-GM in bone marrow” value is “increased obviously”, the “number of CFU-MK in bone marrow” value is “increased obviously” and the “number of total colony-forming units (CFU) in bone marrow” value is “increased significantly”. Also, the “repair of intestinal tissue (HE staining)” value in assay [4] (10th and 14th day) is “improve repairs”. Further, in assay [4], the “repair of hepatic tissue (HE staining)” value is given as “improve repairs” and the “repair of pulmonary tissue (HE staining)” value was “improve repairs”.
